Source: patent US20020055528A1, “Artemisinin analogs having antimalarial, antiproliferative, and antitumor activities and chemoselective methods of making the same” (priority 1999, published 2002)

Legend:
Assay type in all cases: cell-based
NCI-H322M = assay: NCI 60 cell line screen (SRB), Non-Small Cell Lung Cancer; conditions: for Log10TGI: PG=0; for Log10GI50: PG=+50
SW-620 = assay: NCI 60 cell line screen (SRB), Colon Cancer; conditions: for Log10TGI: PG=0; for Log10GI50: PG=+50
DU-145 = assay: NCI 60 cell line screen (SRB), Prostate Cancer; conditions: for Log10TGI: PG=0
NCI-H226 = assay: NCI 60 cell line screen (SRB), Non-Small Cell Lung Cancer; conditions: for Log10TGI: PG=0
SF-295 = assay: NCI 60 cell line screen (SRB), CNS Cancer; conditions: for Log10TGI: PG=0; for Log10GI50: PG=+50
NCI/ADR-RES = assay: NCI 60 cell line screen (SRB), Breast Cancer; conditions: for Log10TGI: PG=0
[1] = tested on: MB231/ATCC (second line of the wrapped label, with values of its own); assay: NCI 60 cell line screen (SRB), Breast Cancer
SF-268 = assay: NCI 60 cell line screen (SRB), CNS Cancer; conditions: for Log10TGI: PG=0; for Log10GI50: PG=+50
SK-OV-3 = assay: NCI 60 cell line screen (SRB), Ovarian Cancer; conditions: for Log10TGI: PG=0
NCI-H23 = assay: NCI 60 cell line screen (SRB), Non-Small Cell Lung Cancer; conditions: for Log10TGI: PG=0
A498 = assay: NCI 60 cell line screen (SRB), Renal Cancer; conditions: for Log10TGI: PG=0
OVCAR-4 = assay: NCI 60 cell line screen (SRB), Ovarian Cancer
OVCAR-5 = assay: NCI 60 cell line screen (SRB), Ovarian Cancer; conditions: for Log10TGI: PG=0
HCC-2998 = assay: NCI 60 cell line screen (SRB), Colon Cancer; conditions: for Log10TGI: PG=0; for Log10GI50: PG=+50
KM12 = assay: NCI 60 cell line screen (SRB), Colon Cancer; conditions: for Log10TGI: PG=0
K-562 = assay: NCI 60 cell line screen (SRB), Leukemia; conditions: for Log10TGI: PG=0
EKVX = assay: NCI 60 cell line screen (SRB), Non-Small Cell Lung Cancer; conditions: for Log10TGI: PG=0
[2] = Table IV (LC50, PG=−50), OVCAR−4

## CC1=C(C=Cc2cccc(C=CC3=C(C)C4CCC(C)C5CCC6(C)OOC45C(O3)O6)c2)OC2OC3(C)CCC4C(C)CCC1C24OO3 (centres unmarked) [VII-g]
NCI-H322M
  Log10TGI: −4.87 log10M
  Log10GI50: −7.42 log10M
SW-620
  Log10TGI: >−4.00 log10M
  Log10GI50: −7.22 log10M
DU-145
  Log10TGI: >−4.00 log10M
DU-145; PG=+50
  Log10GI50: −5.71 log10M
DU-145; Table IV (LC50, PG=−50)
  Log10GI50: >−4.00 log10M
NCI-H226
  Log10TGI: >−4.00 log10M
NCI-H226; PG=+50
  Log10GI50: −4.91 log10M
NCI-H226; Table IV (LC50, PG=−50)
  Log10GI50: >−4.00 log10M
SF-295
  Log10TGI: >−4.00 log10M
  Log10GI50: −6.48 log10M
NCI/ADR-RES
  Log10TGI: >−4.00 log10M
NCI/ADR-RES; PG=+50
  Log10GI50: −5.27 log10M
NCI/ADR-RES; Table IV (LC50, PG=−50)
  Log10GI50: >−4.00 log10M
[1]; PG=+50
  Log10GI50: −7.10 log10M
[1]; Table IV (LC50, PG=−50)
  Log10GI50: >−4.00 log10M
SF-268
  Log10TGI: >−4.00 log10M
  Log10GI50: −6.42 log10M
SK-OV-3
  Log10TGI: >−4.00 log10M
SK-OV-3; PG=+50
  Log10GI50: −5.05 log10M
SK-OV-3; Table IV (LC50, PG=−50)
  Log10GI50: >−4.00 log10M
NCI-H23
  Log10TGI: −4.06 log10M
NCI-H23; PG=+50
  log10 GI50 or LC50 (see conditions): −5.92 log10M
NCI-H23; Table IV (LC50, PG=−50)
  log10 GI50 or LC50 (see conditions): >−4.00 log10M
A498
  Log10TGI: −4.05 log10M
A498; PG=+50
  Log10GI50: −6.04 log10M
A498; Table IV (LC50, PG=−50)
  Log10GI50: >−4.00 log10M
OVCAR-4; OVCAR-4, PG=+50
  Log10GI50: −6.96 log10M
OVCAR-4; [2]
  Log10GI50: >−4.00 log10M
OVCAR-5
  Log10TGI: >−4.00 log10M
OVCAR-5; PG=+50
  Log10GI50: −6.58 log10M
OVCAR-5; Table IV (LC50, PG=−50)
  Log10GI50: >−4.00 log10M
HCC-2998
  Log10TGI: >−4.00 log10M
  Log10GI50: −6.12 log10M
KM12
  Log10TGI: >−4.00 log10M
KM12; PG=+50
  Log10GI50: −7.27 log10M
KM12; Table IV (LC50, PG=−50)
  Log10GI50: >−4.00 log10M
K-562
  Log10TGI: −7.31 log10M
K-562; PG=+50
  Log10GI50: −7.31 log10M
K-562; Table IV (LC50, PG=−50)
  Log10GI50: >−4.00 log10M
EKVX
  Log10TGI: >−4.00 log10M
EKVX; PG=+50
  Log10GI50: −7.17 log10M
EKVX; Table IV (LC50, PG=−50)
  Log10GI50: >−4.00 log10M

## CC1=C(C=Cc2cccc(C=CC3=C(C)C4CCC(C)C5CCC6(C)OOC45C(O3)O6)c2)OC2OC3(C)CCC4C(C)CCC1C24OO3 (centres unmarked) [VII-h]
NCI-H322M
  Log10TGI: −5.88 log10M
  Log10GI50: −7.56 log10M
SW-620
  Log10TGI: >−4.00 log10M
  Log10GI50: −7.59 log10M
DU-145
  Log10TGI: >−4.00 log10M
DU-145; PG=+50
  Log10GI50: −6.16 log10M
DU-145; Table IV (LC50, PG=−50)
  Log10GI50: >−4.00 log10M
NCI-H226
  Log10TGI: >−4.00 log10M
NCI-H226; PG=+50
  Log10GI50: >−4.00 log10M
NCI-H226; Table IV (LC50, PG=−50)
  Log10GI50: >−4.00 log10M
SF-295
  Log10TGI: >−4.00 log10M
  Log10GI50: −6.39 log10M
NCI/ADR-RES
  Log10TGI: −4.40 log10M
NCI/ADR-RES; PG=+50
  Log10GI50: −5.76 log10M
NCI/ADR-RES; Table IV (LC50, PG=−50)
  Log10GI50: >−4.00 log10M
[1]; PG=0
  Log10TGI: −5.72 log10M
[1]; PG=+50
  Log10GI50: −7.31 log10M
[1]; Table IV (LC50, PG=−50)
  Log10GI50: >−4.00 log10M
SF-268
  Log10TGI: >−4.00 log10M
  Log10GI50: −6.86 log10M
SK-OV-3
  Log10TGI: >−4.00 log10M
SK-OV-3; Table IV (LC50, PG=−50)
  Log10GI50: >−4.00 log10M
NCI-H23
  Log10TGI: >−4.00 log10M
NCI-H23; PG=+50
  log10 GI50 or LC50 (see conditions): −6.35 log10M
NCI-H23; Table IV (LC50, PG=−50)
  log10 GI50 or LC50 (see conditions): >−4.00 log10M
A498
  Log10TGI: >−4.00 log10M
A498; PG=+50
  Log10GI50: −6.29 log10M
A498; Table IV (LC50, PG=−50)
  Log10GI50: >−4.00 log10M
OVCAR-4; OVCAR-4, PG=+50
  Log10GI50: −7.51 log10M
OVCAR-4; OVCAR−4, PG=0
  Log10TGI: −6.31 log10M
OVCAR-4; [2]
  Log10GI50: >−4.00 log10M
OVCAR-5
  Log10TGI: >−4.00 log10M
OVCAR-5; PG=+50
  Log10GI50: −7.12 log10M
OVCAR-5; Table IV (LC50, PG=−50)
  Log10GI50: >−4.00 log10M
HCC-2998
  Log10TGI: >−4.00 log10M
  Log10GI50: −6.57 log10M
KM12
  Log10TGI: >−4.00 log10M
KM12; PG=+50
  Log10GI50: −7.81 log10M
KM12; Table IV (LC50, PG=−50)
  Log10GI50: >−4.00 log10M
K-562
  Log10TGI: −7.70 log10M
K-562; PG=+50
  Log10GI50: −7.70 log10M
K-562; Table IV (LC50, PG=−50)
  Log10GI50: >−4.00 log10M
EKVX
  Log10TGI: >−4.00 log10M
EKVX; PG=+50
  Log10GI50: −7.42 log10M
EKVX; Table IV (LC50, PG=−50)
  Log10GI50: >−4.00 log10M
